The CheMixHub viscosity set

Assay: xn = mol fraction of the nth substance listed

COCCOCCOC + CCOC(=O)CCC(=O)OCC
viscosity [mPa·s], 101.33 kPa
Details	x1 = 0.1002	x1 = 0.2023	x1 = 0.3012	x1 = 0.4033	x1 = 0.5032	x1 = 0.6024	x1 = 0.7034	x1 = 0.801	x1 = 0.9025
298.15 K	2.198	2.009	1.843	1.681	1.535	1.412	1.296	1.187	1.077
303.15 K	1.951	1.792	1.65	1.513	1.386	1.283	1.184	1.086	0.994
308.15 K	1.737	1.599	1.476	1.355	1.251	1.163	1.082	0.997	0.92
313.15 K	1.559	1.438	1.33	1.229	1.139	1.061	0.989	0.919	0.852
318.15 K	1.406	1.299	1.206	1.115	1.034	0.969	0.908	0.849	0.792

COCCOCCOC + CCOC(=O)OCC
viscosity [mPa·s], 101.33 kPa
Details	298.15 K	308.15 K	318.15 K
x1 = 0.0487	0.761	0.669	0.572
x1 = 0.0871	0.774	0.674	0.593
x1 = 0.1367	0.787	0.68	0.6
x1 = 0.18	0.798	0.687	0.607
x1 = 0.2621	0.817	0.706	0.618
x1 = 0.306	0.828	0.713	0.626
x1 = 0.3935	0.849	0.731	0.64
x1 = 0.4303	0.857	0.739	0.652
x1 = 0.4835	0.87	0.747	0.656
x1 = 0.557	0.886	0.766	0.665
x1 = 0.6202	0.899	0.772	0.674
x1 = 0.6549	0.907	0.783	0.679
x1 = 0.7104	0.92	0.79	0.687
x1 = 0.7618	0.933	0.799	0.695
x1 = 0.8134	0.945	0.809	0.702
x1 = 0.8478	0.952	0.814	0.707
x1 = 0.938	0.97	0.825	0.719
x1 = 0.9718	0.979	0.832	0.725
x2 = 0.0073	0.987	0.837	0.727

CC=CC(=O)O + CCOC(C)=O
viscosity [mPa·s], 101 kPa
Details	x1 = 0.0495	x1 = 0.0995	x1 = 0.1509	x1 = 0.1971	x1 = 0.2463	x1 = 0.2605
298.15 K	0.4663	0.5094	0.5447	0.5907	0.6329	0.6467
303.15 K	0.4417	0.4788	0.5181	0.5583	0.5921	0.6093
313.15 K	0.4005	0.4309	0.4587	0.494	0.5254	0.5496
323.15 K	0.361	0.3895	0.413	0.4469	0.4704	0.4917

COCCOCCOC + CCOC(C)=O
viscosity [mPa·s], 101.33 kPa
Details	x1 = 0.1016	x1 = 0.2005	x1 = 0.3016	x1 = 0.4007	x1 = 0.4999	x1 = 0.6005	x1 = 0.6994	x1 = 0.8013	x1 = 0.8999
298.15 K	0.477	0.527	0.579	0.633	0.69	0.748	0.815	0.867	0.92
303.15 K	0.451	0.497	0.546	0.594	0.645	0.698	0.75	0.807	0.854
308.15 K	0.428	0.469	0.513	0.558	0.604	0.653	0.706	0.748	0.794
313.15 K	0.406	0.445	0.485	0.526	0.569	0.612	0.659	0.7	0.74
318.15 K	0.385	0.421	0.459	0.496	0.535	0.575	0.616	0.653	0.689

ClC(Cl)C(Cl)Cl + CCOC(C)=O
303.15 K, 101.3 kPa
Details	viscosity [mPa·s]
x2 = 0.15	1.358
x2 = 0.2009	1.306
x2 = 0.3141	1.18
x2 = 0.3963	1.08
x2 = 0.4968	0.9507
x2 = 0.5996	0.8225
x2 = 0.7128	0.6857
x2 = 0.8056	0.5773
x2 = 0.9246	0.4625

CCCCCCN + CCOCCO
308.15 K, 101 kPa
Details	viscosity [mPa·s]
x2 = 0.1321	0.7283
x2 = 0.255	0.8766
x2 = 0.3698	1.026
x2 = 0.4772	1.172
x2 = 0.5779	1.305
x2 = 0.6726	1.426
x2 = 0.7616	1.469
x2 = 0.8456	1.457
x2 = 0.9249	1.445

Oc1ccccc1 + CN(C)c1ccccc1
viscosity [mPa·s], 101 kPa
Details	293.15 K	302.95 K	313.35 K
x1 = 0.0998	–	1.351	1.159
x1 = 0.114	1.684	–	–
x1 = 0.2041	–	1.629	1.354
x1 = 0.2122	2.045	–	–
x1 = 0.2884	2.415	–	–
x1 = 0.2958	–	1.936	1.57
x1 = 0.385	–	2.315	1.84
x1 = 0.3889	3.085	–	–
x1 = 0.4659	3.77	–	–
x1 = 0.477	–	2.83	2.185
x1 = 0.5458	4.7	–	–
x1 = 0.5549	–	3.33	2.51
x1 = 0.6187	5.64	–	–
x1 = 0.6224	–	3.93	2.855
x1 = 0.6851	6.75	–	–
x1 = 0.6955	–	4.705	3.34
x1 = 0.75	8.01	–	–
x1 = 0.7591	–	5.325	3.715
x1 = 0.8215	9.4	–	–
x1 = 0.8274	–	6.025	4.15
x1 = 0.8827	10.3	–	–
x1 = 0.8884	–	6.48	4.4
x1 = 0.9428	10.87	–	–
x1 = 0.9463	–	6.86	4.59

CC[P+](c1ccccc1)(c1ccccc1)c1ccccc1.[Br-] + CN(CCO)CCO
viscosity [mPa·s], 100 kPa
Details	293.15 K	303.15 K	313.15 K	323.15 K
x1 = 0.05673	152.7	81.77	47.16	29.08
x1 = 0.08776	192.3	100.3	56.67	34.34
x1 = 0.1208	238	121	66.81	39.76
